Laboratory results: article PMC8968952, “Modulation of ERCC1-XPF Heterodimerization Inhibition via Structural Modification of Small Molecule Inhibitor Side-Chains” (Frontiers in Oncology, 2022)
Values joined by “and” are separate entries in the source; they are usually repeats but may differ in a detail not shown here. Equal values may be shown once.

Key:
ERCC1-XPF = target: T1, ERCC1-XPF (Homo sapiens, UniProt Q92889); test: Microplate fluorescence incision assay (endonuclease activity); assay type: biochemical
T1 construct: the final purity of the full-length ERCC1-XPF heterodimer was determined to be ~35%; His6; made in house; host or cells: E. coli BL21(DE3)
T1 sequence (Q92889 1-916): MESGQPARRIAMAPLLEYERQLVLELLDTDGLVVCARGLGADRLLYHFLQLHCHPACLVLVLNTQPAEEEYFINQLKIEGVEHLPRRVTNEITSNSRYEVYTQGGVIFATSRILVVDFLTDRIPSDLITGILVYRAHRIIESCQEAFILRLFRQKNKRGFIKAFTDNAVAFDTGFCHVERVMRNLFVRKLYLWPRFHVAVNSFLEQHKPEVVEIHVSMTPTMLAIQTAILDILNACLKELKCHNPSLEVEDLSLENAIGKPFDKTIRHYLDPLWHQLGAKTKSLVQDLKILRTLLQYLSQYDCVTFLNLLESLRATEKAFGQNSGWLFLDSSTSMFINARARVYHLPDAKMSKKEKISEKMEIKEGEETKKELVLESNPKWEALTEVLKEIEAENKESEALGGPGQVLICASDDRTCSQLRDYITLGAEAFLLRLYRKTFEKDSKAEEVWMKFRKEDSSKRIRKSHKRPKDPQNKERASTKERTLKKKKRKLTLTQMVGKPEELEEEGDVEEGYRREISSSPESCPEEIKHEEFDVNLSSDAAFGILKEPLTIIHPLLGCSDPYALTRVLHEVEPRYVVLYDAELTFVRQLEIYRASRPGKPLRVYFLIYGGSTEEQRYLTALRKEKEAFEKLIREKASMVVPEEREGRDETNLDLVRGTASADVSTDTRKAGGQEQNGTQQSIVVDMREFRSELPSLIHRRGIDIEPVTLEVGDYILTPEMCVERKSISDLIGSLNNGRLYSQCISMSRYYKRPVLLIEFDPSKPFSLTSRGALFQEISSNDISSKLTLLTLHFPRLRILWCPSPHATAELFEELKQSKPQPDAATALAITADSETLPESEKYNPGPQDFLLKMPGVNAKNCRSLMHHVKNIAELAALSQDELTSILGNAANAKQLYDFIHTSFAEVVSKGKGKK
Description: Recombinant human ERCC1–XPF wild-type protein (containing polyhistidine (His-6) tags) was expressed from a bicistronic plasmid (kindly provided by Dr. Richard Wood, University of Texas MD Anderson Cancer Center, Smithville, TX) in the E. coli BL21(DE3) strain, Following previously described procedures ([70], [78]) the proteins extracted from E. coli were eluted from a ProBond Nickel-Chelating Resin (Thermo Fisher Scientific) and then a Hi-trap heparin column (GE Healthcare). Fractions containing ERCC1–XPF were dialyzed, concentrated, and stored at −80°C in 10 mM HEPES, pH 7.4, 2.5 mM β-mercaptoethanol, 0.01% CHAPS, 0.25 mM EDTA, 50% glycerol, and 25 mM NaCl. Based on polyacrylamide gel separation and Coomassie Blue staining, the final purity of the full-length ERCC1-XPF heterodimer was determined to be ~35%.
We employed a previously described protocol ([60], [70], [78]) in which the incision of the stem–loop substrate [6-FAM-5′-[…](20T)[…]-3′-dabcyl] (100 nM in 50 mM Tris-HCl, pH 8, 20 mM NaCl, 0.5 mM DDT, and 0.75 mM MnCl2) mediated by ERCC1-XPF (25 ng) in a total volume of 20 μL at 25°C was monitored by fluorescence using a FLUOstar Optima fluorimeter (BMG Labtech) with Optima software and excitation and emission wavelengths of 485 and 520 nm, respectively, for 5.5 min. The final concentration of inhibitor in the reaction was 10 μM prepared from a 200 μM stock solution in DMSO. With a molecular weight of 151 KDa for the XPF-ERCC1 heterodimer, a concentration of 25 ng of protein in 20 µl reaction buffer and a purity of 35%, the molar concentration of the enzyme was estimated to be 2.9 nM. Data were plotted using Microsoft Excel 2016.
An in vitro fluorescence-based assay was used to assess the ability of the synthesized compounds to inhibit the endonuclease activity of ERCC1-XPF. This assay has been previously described ([60], [70], [78]) and makes use of a stem-loop DNA substrate with a 5’-FAM fluorescent dye, and a 3’-dabcyl quencher. When ERCC1-XPF can cleave the DNA substrate, a 5’-FAM containing molecule is liberated from the stem-loop (and the quencher) and the fluorescence of the solution increases. The increase of the fluorescence of the solution can be observed in Figure 3A , in the absence of any inhibitor. To determine the influence of the inhibitory compounds, the protein was preincubated for 10 minutes with 10 μM of each inhibitor prior to addition of the substrate.

[1] = target: T2, ERCC1-XPF heterodimer in A549 cells (Homo sapiens, UniProt Q92889); test: Proximity ligation assay of ERCC1-XPF heterodimerization; assay type: cell-based; settings: 2 µM, 24 h
T2 construct: endogenous in cells; host or cells: A549
T2 sequence (Q92889 1-916): T1 sequence (Q92889 1-916)
Experimental: A previously published protocol ([73]) was followed with minor modifications. Briefly, 3 x 10^4 A549 cells were seeded in each well of an 8-well Chamber Slide system (Ibidi. Fitchburg, WI) and allowed to adhere overnight. The cells were then treated with the inhibitor (2 μM prepared from a 1 mM stock in DMSO) or vehicle control (0.2% DMSO) and incubated for 24 h. Samples were fixed and processed for protein proximity ligation analysis (PLA) by the Duolink PLA assay kit (Sigma-Aldrich, Oakville, ON) using an ERCC1 antibody (A73368-100, 1/100; EpiGentek, Farmingdale, NY) and an XPF antibody (LS-C173159, 1/100; LifeSpan BioSciences, Seattle, WA). […] Images of the interaction of ERCC1 and XPF represented as red dots were analyzed using IMARIS 9.7 software (Oxford Instruments). Results are expressed as mean values from at least three experiments conducted independently in duplicate.
To confirm that compound 6 was able to disrupt the interaction between subunits in the ERCC1-XPF heterodimer in cells, we performed PLA using A549 lung cancer cells exposed to 2 µM compound 6 or DMSO vehicle for 24 h. […] In the presence of vehicle (0.2% DMSO) alone we observed an average of 75.7 ± 15.4 foci per cell whereas in the presence of compound 6 only an average of 3.1 ± 2.6 foci per cell were detected. […]

- IC50 (ERCC1-XPF): 167 nM and 170 nM
- decrease of ERCC1-XPF endonuclease activity (ERCC1-XPF; 10 μM inhibitor, at 5.5 minutes): 94%
SMILES: COc1ccc2nc3cc(Cl)ccc3c(Nc3ccc(O)c(CN4CCN(CCN(C(C)C)C(C)C)CC4)c3)c2c1 [Compound 6]
- inhibition of ERCC1-XPF endonuclease activity (in words, vs control and 4) (ERCC1-XPF; 10 μM inhibitor, 10 min preincubation): increased inhibition of ERCC1-XPF endonuclease activity relative to 4
- ERCC1-XPF PLA foci per cell [1]: 3.1 ± 2.6 foci per cell and 3 foci per cell
